Results on one compound are retold here after US20050004044A1, “Use of orsaponin [3beta, 16beta, 17 alpha-trihydroxycholost-5-en-22-one 16-0-(2-0-4-methoxybenzoyl-beta-D-xylopyranosyl)-(1->3)-(2-0-acetyl-alpha-L-arabinopyranoside)] or OSW-1 and its derivatives for cancer therapeutics” (priority 2003, published 2005).

Each structure is given as a SMILES string. pIC50: −log10 of the molar value.

One assay concerns Raji cells (lymphoma). The assay is described as follows: MTT cell growth inhibition, Raji. In kind it is cell-based, human. The conditions noted are these: Homo sapiens, 72 h. As to the method: FIG. 2. Effect of Orsaponin (OSW-1) on cell growth in two human cancer cell lines including a leukemia and a lymphoma cell line. HL-60 (leukemia) and Raji cells (lymphoma) in exponentially growing phase were treated with the indicated concentrations of OSW-1 for 72 hours. Cell growth inhibition was measured by MTT assay.
Cells and Cell Lines. Various cancer cell lines were used including the human leukemia cell lines HL-60 and ML-1 cells; human lymphoma cell line Raji; human pancreatic cancer cells AsPC-1; and human ovarian cancer cells SKOV3; human colon cancer cells HCT116; as well as isolated CLL cells from patients; and lymphocytes from normal donors. Cells were grown and maintained as per protocols known in the art using appropriate cell culture media and supplements.
1. MTT Assays. For these assays either cancer cell lines were used. […] After the indicated number of days (usually 3 days or 72 hours) of exposure to OSW-1, cell survival was assessed by the addition of the MTT dye to the wells. […] Survival of cells under orsaponin treatment was evaluated as a percentage of control cell growth. […]
(§1) Anticancer activities of Orsaponin and 17-deoxyorsaponin were examined in human leukemia cells (ML-1) and human lymphoma cells (Raji). Cells were incubated with various concentrations of Orsaponin and 17-deoxyorsaponin for 72 h, and cell growth inhibition was measured by MTT assay.

Assay [1] deals with pancreatic cancer AsPC-1 cells. The assay can be described thus: MTT cell growth inhibition, AsPC-1. In kind it is cell-based, human. The conditions noted are these: Homo sapiens, ASPC1, 72 h, AsPC-1, 72 h. As to the method: FIG. 3. Effect of Orsaponin (OSW-1) on cell growth in human pancreatic cancer cells. Human pancreatic cancer AsPC-1 cells were treated with the indicated concentrations of OSW-1 for 72 h or 96 h. Cell growth inhibition was measured by MTT assay.
FIG. 4. The anticancer activity of Orsaponin (OSW-1) is not affected by NFκB expression in pancreatic cancer cells. Human pancreatic cancer cells AsPC-1 with constitutive activation of NFκB or inactivation of NFκB by dominant negative IκBα (AsPC-1/IκBα-ND) were treated with the indicated concentrations of OSW-1 for 72 h. Cell growth inhibition was measured by MTT assay.
Cells and Cell Lines. Various cancer cell lines were used including the human leukemia cell lines HL-60 and ML-1 cells; human lymphoma cell line Raji; human pancreatic cancer cells AsPC-1; and human ovarian cancer cells SKOV3; human colon cancer cells HCT116; as well as isolated CLL cells from patients; and lymphocytes from normal donors. […]
1. […] After the indicated number of days (usually 3 days or 72 hours) of exposure to OSW-1, cell survival was assessed by the addition of the MTT dye to the wells. […] Survival of cells under orsaponin treatment was evaluated as a percentage of control cell growth. […]
(§2) The effect of Orsaponin and 17-deoxyorsaponin in pancreatic cancer cells was also assessed. […] Cell growth inhibition was measured by MTT assay.

Assay [2] relates to ovarian cancer SKOV3 cells. The assay can be described thus: MTT cell growth inhibition, SKOV3. The format is cell-based. To be noted: Homo sapiens, SK-OV-3, SKOV3, 72 h. The procedure:
FIG. 5. Effect of Orsaponin (OSW-1) on cell growth in human ovarian cancer cells (SKOV3). Human ovarian cancer SKOV3 cells were treated with the indicated concentrations of OSW-1 for 72 h. Cell growth inhibition was measured by the MTT assay. The IC50 value is approximately 0.2 nM under the experimental conditions.
1. MTT Assays. For these assays either cancer cell lines were used. Alternatively, mononuclear cells from peripheral blood samples of CLL patients or normal donors were separated by Ficoll Hipaque fractionation and resuspended in DMEM complete medium. […] After the indicated number of days (usually 3 days or 72 hours) of exposure to OSW-1, cell survival was assessed by the addition of the MTT dye to the wells. […] Survival of cells under orsaponin treatment was evaluated as a percentage of control cell growth. […]
OSW-1 Inhibits Growth of Ovarian Cancer Cells. […] Human ovarian cancer SKOV3 cells were treated with 0-10 nM OSW-1 for 72 h and cell growth inhibition was measured by the MTT assay.
The effect of 17-deoxyorsaponin in human ovarian cancer cells was determined. […] Cell growth inhibition was measured by MTT assay (FIG. 17). […] ML-1 leukemia cells were incubated with various concentrations of 17-deoxyorsaponin for 72 h and cell growth inhibition was measured using the MTT assay (FIG. 18).

Another assay has as its system primary CLL cells. The assay is described as follows: cells. The conditions noted are these: Homo sapiens, CLL cell, CLL cells, median of 11 patient samples; read-out: IC50 (nM), Median. The format is cell-based. As to the method: FIG. 7. Effect of Orsaponin (OSW-1) on cell survival in primary human leukemia cells isolated from patients with chronic lymphocytic leukemia (CLL). Freshly isolated primary CLL cells were incubated with the indicated concentrations of OSW-1 for 72 hours in vitro. Cell viability was measured by MTT assay. […] Data from representative experiments with CLL cells from three different patients are shown. A total of 23 CLL blood samples were tested for sensitivity to OSW-1 in the same fashion.
(§3) 1. MTT Assays. For these assays either cancer cell lines were used. Alternatively, mononuclear cells from peripheral blood samples of CLL patients or normal donors were separated by Ficoll Hipaque fractionation and resuspended in DMEM complete medium. Malignant cells from various human cell lines (usually at 5×10^4 cells/ml) or mononuclear cells from peripheral blood of leukemia patients and healthy donors (1×10^6 cells/ml) were incubated in either αMEM or RPMI 1640 with or without various concentrations of OSW-1 in the range of 0-10 nM. Each experimental condition was done in triplicate. After the indicated number of days (usually 3 days or 72 hours) of exposure to OSW-1, cell survival was assessed by the addition of the MTT dye to the wells. The MTT dye changes its color depending on the presence of live cells in the well. Survival of cells under orsaponin treatment was evaluated as a percentage of control cell growth. Alternatively, one can also use the dye trypan-blue which penetrates dead cells thereby allowing one to count live cells under the microscope and estimating percentage survival.
Reduction of Cell Viability in CLL-Patient-Derived Cells. […] Freshly isolated primary CLL cells were incubated with the 0-100 nM OSW-1 for 72 hours in vitro and cell viability was measured by the MTT assay.
Cytotoxic activity of 17-deoxyorsaponin was also assessed in a number of patient samples. Primary human leukemia cells isolated from 11 patients with chronic lymphocytic leukemia (CLL) were analyzed for cytotoxic activity of 17-deoxyorsaponin. […]

The test system of a further assay is ML-1 leukemia cells. The assay can be described thus: MTT cell growth inhibition, ML-1. In kind it is cell-based, human. The conditions noted are these: ML-1, 72 h. The procedure: as §3, §1
The effect of 17-deoxyorsaponin in human ovarian cancer cells was determined. SKOV3 ovarian cancer cells were incubated with various concentrations of 17-deoxyorsaponin for 72 h. Cell growth inhibition was measured by MTT assay (FIG. 17). […] The effect of 17-deoxyorsaponin in human acute myeloid leukemia cells was also examined. ML-1 leukemia cells were incubated with various concentrations of 17-deoxyorsaponin for 72 h and cell growth inhibition was measured using the MTT assay (FIG. 18).

Assay [3] deals with pancreatic cancer (Panco-2) cells. The assay is described as follows: MTT cell growth inhibition, Panco-2. The format is cell-based. The conditions noted are these: Mus musculus, Panco-2, 72 h. The procedure:
as §3, §2

The test system of assay [4] is HCT116 p53+/+ colon cancer cells. The assay can be described thus: MTT cell growth inhibition, HCT116 p53+/+. The format is cell-based. The conditions noted are these: Homo sapiens, HCT-116, 72 h. The procedure:
as §3
(§4) Anticancer activity of 17-deoxyorsaponin in human colon cancer cells was examined. HCT116 p53+/+ and HCT116 p53−/− human colon cancer cells were incubated with the various concentrations of 17-deoxyorsaponin for 72 h. Cell growth inhibition was measured by MTT assay.

Assay [5] deals with HCT116 p53−/− colon cancer cells. The assay is described as follows: MTT cell growth inhibition, HCT116 p53−/−. In kind it is cell-based. The conditions noted are these: Homo sapiens, HCT-116, 72 h. As to the method:
as §3, §4

The test system of assay [6] is malignant glioma U87-MG cells. The assay can be described thus: MTT cell growth inhibition, U87-MG glioma. The format is cell-based, human. The conditions noted are these: U87-MG vs normal human astrocytes. The procedure:
as §3
To test the therapeutic selectivity of Orsaponin and 17-deoxyorsaponin, their effect on human brain tumor cells (U87 malignant glioma) and normal human astrocytes were compared. The normal human astrocytes were previously immortalized by transfection with hTER to allow a long-term culture in vitro. The antiproliferative effect of Orsaponin in human malignant glioma cells (U87-MG) and normal human astrocytes was examined. Cells were incubated with various concentrations of Orsaponin for 72 h. Cell growth inhibition was measured by MTT assay (FIG. 21).

As usually defined, the pIC50 is −log10 of the IC50, conventionally taken in molar units. Low readings indicate a high IC50, high ones a low IC50. By IC50 is commonly meant the concentration that gives 50% inhibition.

For the compound `COc1ccc(C(=O)OC2C(OC3C(O)COC(O[C@H]4C[C@H]5[C@@H]6CC=C7C[C@@H](O)CC[C@]7(C)[C@H]6CC[C@]5(C)[C@H]4[C@H](C)C(=O)CCC(C)C)C3OC(C)=O)OCC(O)C2O)cc1` (stereo partly shown) [17-deoxyorsaponin], the pIC50 was more than 10.00 in the assay on Raji cells (lymphoma); 9.00 in assay [1]; approximately 10.00 in assay [2]; more than 10.00 in the assay with ML-1 leukemia cells (Homo sapiens, 72 h); approximately 9.70 with ML-1 leukemia cells; 10.00 in [3]. Further, the pIC50 in assay [4] and in assay [5] was approximately 9.00 in each case. For the same compound, the IC50 in the assay with primary CLL cells amounted to 0.37 nM. Besides, in [6], the “sensitivity of glioma cells compared with normal astrocytes” value is listed as “more sensitive”.
